Columns and labels:
Test in all cases: NCI SRB growth inhibition (single dose 10 µM / five-dose)
Type in all cases: cell-based, human
[1] = tested on: A498; conditions: Homo sapiens; A498 (Renal cancer), 10 µM; read-out: GI%
How it was run: (§1)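 After a 24 h pre-incubation, cells received drug at five serially diluted concentrations; two untreated plates per line were TCA-fixed at drug addition as Tz. Adherent plates were fixed with cold TCA, stained with SRB and washed with 1% acetic acid.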

[2] = tested on: CCRF-CEM; conditions: Homo sapiens; CCRF-CEM (Leukemia), 10 µM; read-out: GI%
How it was run: as §1

[3] = tested on: HCT-15; conditions: Homo sapiens; HCT-15 (Colon cancer), 10 µM; read-out: GI%
How it was run: as §1

[4] = tested on: HOP-62; conditions: Homo sapiens; HOP-62 (Non-small cell lung cancer), 10 µM; read-out: GI%
How it was run: as §1

[5] = tested on: HOP-92; conditions: Homo sapiens; HOP-92 (Non-small cell lung cancer), 10 µM; read-out: GI%
How it was run: as §1

[6] = tested on: HT29; conditions: Homo sapiens, HT-29; HT29 (Colon cancer), 10 µM; read-out: GI%
How it was run: as §1

[7] = tested on: IGROV1; conditions: Homo sapiens, IGROV-1; IGROV1 (Ovarian cancer), 10 µM; read-out: GI%
How it was run: as §1

[8] = tested on: KM12; conditions: Homo sapiens; KM12 (Colon cancer), 10 µM; read-out: GI%
How it was run: as §1

[9] = tested on: MDA-MB-231/ATCC; conditions: Homo sapiens; MDA-MB-231/ATCC (Breast cancer), 10 µM; read-out: GI%
How it was run: as §1

[10] = tested on: MDA-MB-435; conditions: Homo sapiens; MDA-MB-435 (Melanoma), 10 µM; read-out: GI%
How it was run: as §1

[11] = tested on: NCI-H226; conditions: Homo sapiens; NCI-H226 (Non-small cell lung cancer), 10 µM; read-out: GI%
How it was run: as §1

[12] = tested on: NCI-H23; conditions: Homo sapiens; NCI-H23 (Non-small cell lung cancer), 10 µM; read-out: GI%
How it was run: as §1

[13] = tested on: NCI-H460; conditions: Homo sapiens; NCI-H460 (Non-small cell lung cancer), 10 µM; read-out: GI%
How it was run: as §1

[14] = tested on: NCI-H522; conditions: Homo sapiens; NCI-H522 (Non-small cell lung cancer), 10 µM; read-out: GI%
How it was run: as §1

[15] = tested on: NCI/ADR-RES; conditions: Homo sapiens; NCI/ADR-RES (Ovarian cancer), 10 µM; read-out: GI%
How it was run: as §1

[16] = tested on: OVCAR-3; conditions: Homo sapiens; OVCAR-3 (Ovarian cancer), 10 µM; read-out: GI%
How it was run: as §1

[17] = tested on: PC-3; conditions: Homo sapiens; PC-3 (Prostate cancer), 10 µM; read-out: GI%
How it was run: as §1

[18] = tested on: RXF 393; conditions: Homo sapiens; RXF 393 (Renal cancer), 10 µM; read-out: GI%
How it was run: as §1

[19] = tested on: SF-268; conditions: Homo sapiens; SF-268 (CNS cancer), 10 µM; read-out: GI%
How it was run: as §1

[20] = tested on: SF-295; conditions: Homo sapiens; SF-295 (CNS cancer), 10 µM; read-out: GI%
How it was run: as §1

[21] = tested on: SK-MEL-28; conditions: Homo sapiens; SK-MEL-28 (Melanoma), 10 µM; read-out: GI%
How it was run: as §1

[22] = tested on: SK-MEL-5; conditions: Homo sapiens; SK-MEL-5 (Melanoma), 10 µM; read-out: GI%
How it was run: as §1

[23] = tested on: SK-OV-3; conditions: Homo sapiens; SK-OV-3 (Ovarian cancer), 10 µM; read-out: GI%
How it was run: as §1

[24] = tested on: SNB-75; conditions: Homo sapiens; SNB-75 (CNS cancer), 10 µM; read-out: GI%
How it was run: as §1

[25] = tested on: U251; conditions: Homo sapiens, U-251; U251 (CNS cancer), 10 µM; read-out: GI%
How it was run: as §1

Row | Structure (SMILES) | inhibition at 10 µM [1] [%] | inhibition at 10 µM [2] [%] | inhibition at 10 µM [3] [%] | inhibition at 10 µM [4] [%] | inhibition at 10 µM [5] [%] | inhibition at 10 µM [6] [%] | inhibition at 10 µM [7] [%] | inhibition at 10 µM [8] [%] | inhibition at 10 µM [9] [%] | inhibition at 10 µM [10] [%] | inhibition at 10 µM [11] [%] | inhibition at 10 µM [12] [%] | inhibition at 10 µM [13] [%] | inhibition at 10 µM [14] [%] | inhibition at 10 µM [15] [%] | inhibition at 10 µM [16] [%] | inhibition at 10 µM [17] [%] | inhibition at 10 µM [18] [%] | inhibition at 10 µM [19] [%] | inhibition at 10 µM [20] [%] | also measured
1 | COc1ccc(-c2nc3cc(C(=O)NN=Cc4cccc(O)c4)ccc3[nH]2)cc1 [8i, N'-(3-Hydroxybenzylidene)-2-(4-methoxyphenyl)-1H-benzo[d]imidazole-5-carbohydrazide] | < 5 | 80.8 | 5.17 | 42 | 27 | 74.5 | 11.2 | 38.7 | 22.4 | 63.8 | 7.75 | 6.56 | 5.05 | 43.4 | < 5 | 8.04 | 34.4 | 14.5 | 37.4 | 22 | inhibition at 10 µM [21]: 52.9%; inhibition at 10 µM [22]: 40.5%; inhibition at 10 µM [23]: 54%; inhibition at 10 µM [24]: 17.8%; inhibition at 10 µM [25]: 32.1%
2 | COc1ccc(-c2nc3cc(C(=O)NN=Cc4cc(OC)ccc4OC)ccc3[nH]2)cc1 [8m, N'-(2,5-Dimethoxybenzylidene)-2-(4-methoxyphenyl)-1H-benzo[d]imidazole-5-carbohydrazide] | < 5 | 45.9 | 13.7 | 19.4 | < 5 | 25.4 | < 5 | 11.7 | 14.3 | < 5 | < 5 | < 5 | < 5 | 21.3 | < 5 | < 5 | 13.6 | 15.2 | 9.02 | 19.9 | inhibition at 10 µM [21]: 5.7%; inhibition at 10 µM [22]: 22.3%; inhibition at 10 µM [23]: < 5%; inhibition at 10 µM [24]: < 5%; inhibition at 10 µM [25]: 9.71%
3 | COc1ccc(OC)c(C=NNC(=O)c2ccc3[nH]c(-c4ccc(Cl)cc4)nc3c2)c1 [8t, 2-(4-Chlorophenyl)-N'-(2,5-dimethoxybenzylidene)-1H-benzo[d]imidazole-5-carbohydrazide] | 56.2 | 56.1 | 58.2 | 18.4 | 36.6 | 20.3 | 7.82 | 23.3 | 89.7 | 14.3 | 35.7 | 33.9 | 17.5 | 40.9 | 11.2 | 10.8 | 58.5 | 96.5 | 43 | 51.9 | inhibition at 10 µM [21]: 14.6%; inhibition at 10 µM [22]: 68.8%; inhibition at 10 µM [23]: 15.1%; inhibition at 10 µM [24]: 27.2%; inhibition at 10 µM [25]: 25.7%
4 | COc1cccc(C=NNC(=O)c2ccc3[nH]c(-c4ccccc4)nc3c2)c1 [8c, N'-(3-Methoxybenzylidene)-2-phenyl-1H-benzo[d]imidazole-5-carbohydrazide] | < 5 | 44.5 | 27.5 | 15.4 | < 5 | 33.9 | 10.1 | 26 | < 5 | 18.9 | 19.3 | 9.68 | 13.1 | 26 | 6.59 | 7.38 | 24.6 | 29.2 | 15.1 | 18.5 | inhibition at 10 µM [21]: 20.4%; inhibition at 10 µM [22]: 39%; inhibition at 10 µM [23]: 64%; inhibition at 10 µM [24]: 11%; inhibition at 10 µM [25]: 14.3%
5 | O=C(NN=Cc1cccc(O)c1)c1ccc2[nH]c(-c3ccccc3)nc2c1 [8b, N'-(3-Hydroxybenzylidene)-2-phenyl-1H-benzo[d]imidazole-5-carbohydrazide] | < 5 | 54.4 | < 5 | 19.3 | < 5 | 16.4 | 13 | 19.8 | 14.1 | 5.45 | < 5 | < 5 | < 5 | 38.1 | < 5 | 11.1 | 11.8 | < 5 | 16.8 | < 5 | inhibition at 10 µM [21]: < 5%; inhibition at 10 µM [22]: 10.9%; inhibition at 10 µM [23]: 25.6%; inhibition at 10 µM [24]: 6.56%; inhibition at 10 µM [25]: < 5%
6 | COc1ccc(C=NNC(=O)c2ccc3[nH]c(-c4ccccc4)nc3c2)cc1O [8e, N'-(3-Hydroxy-4-methoxybenzylidene)-2-phenyl-1H-benzo[d]imidazole-5-carbohydrazide] | < 5 | 35.9 | < 5 | 21.4 | 6.3 | 95.8 | 22 | 21.9 | < 5 | 30.4 | 11.4 | < 5 | < 5 | 29.4 | < 5 | 7.25 | 11.5 | < 5 | 16 | 10.9 | inhibition at 10 µM [21]: 28.9%; inhibition at 10 µM [22]: 39.5%; inhibition at 10 µM [23]: 56.3%; inhibition at 10 µM [24]: < 5%; inhibition at 10 µM [25]: 14.6%
7 | O=C(NN=Cc1cccc(O)c1)c1ccc2[nH]c(-c3ccc(Cl)cc3)nc2c1 [8p, 2-(4-Chlorophenyl)-N'-(3-hydroxybenzylidene)-1H-benzo[d]imidazole-5-carbohydrazide] | 10.2 | 71.9 | < 5 | 32.5 | 6.79 | 19.9 | 5.71 | 62.7 | 45.2 | 15.2 | 30.1 | 56.6 | 56.6 | 55.8 | < 5 | < 5 | 48.8 | 31.6 | 24.2 | 11.8 | inhibition at 10 µM [21]: 16%; inhibition at 10 µM [22]: 69.5%; inhibition at 10 µM [23]: 36.2%; inhibition at 10 µM [24]: 7.89%; inhibition at 10 µM [25]: 75.5%

Reference: article PMC10893631, “Receptor-based pharmacophore modeling, molecular docking, synthesis and biological evaluation of novel VEGFR-2, FGFR-1, and BRAF multi-kinase inhibitors” (BMC Chemistry, 2024)
